Data reported in patent publication US20200291018A1, “TAM KINASE INHIBITORS” (SYROS PHARMACEUTICALS, INC., priority 2017, published 2020).
pIC50: −log10 of the molar value.

How the values were obtained:
[1] = biological target: T1, TYRO3 (Homo sapiens, UniProt Q06418); experiment: TR-FRET kinase activity assay, TYRO3; type: biochemical; details: ATP at Km, 60 minutes
T1 sequence (Q06418 41-890): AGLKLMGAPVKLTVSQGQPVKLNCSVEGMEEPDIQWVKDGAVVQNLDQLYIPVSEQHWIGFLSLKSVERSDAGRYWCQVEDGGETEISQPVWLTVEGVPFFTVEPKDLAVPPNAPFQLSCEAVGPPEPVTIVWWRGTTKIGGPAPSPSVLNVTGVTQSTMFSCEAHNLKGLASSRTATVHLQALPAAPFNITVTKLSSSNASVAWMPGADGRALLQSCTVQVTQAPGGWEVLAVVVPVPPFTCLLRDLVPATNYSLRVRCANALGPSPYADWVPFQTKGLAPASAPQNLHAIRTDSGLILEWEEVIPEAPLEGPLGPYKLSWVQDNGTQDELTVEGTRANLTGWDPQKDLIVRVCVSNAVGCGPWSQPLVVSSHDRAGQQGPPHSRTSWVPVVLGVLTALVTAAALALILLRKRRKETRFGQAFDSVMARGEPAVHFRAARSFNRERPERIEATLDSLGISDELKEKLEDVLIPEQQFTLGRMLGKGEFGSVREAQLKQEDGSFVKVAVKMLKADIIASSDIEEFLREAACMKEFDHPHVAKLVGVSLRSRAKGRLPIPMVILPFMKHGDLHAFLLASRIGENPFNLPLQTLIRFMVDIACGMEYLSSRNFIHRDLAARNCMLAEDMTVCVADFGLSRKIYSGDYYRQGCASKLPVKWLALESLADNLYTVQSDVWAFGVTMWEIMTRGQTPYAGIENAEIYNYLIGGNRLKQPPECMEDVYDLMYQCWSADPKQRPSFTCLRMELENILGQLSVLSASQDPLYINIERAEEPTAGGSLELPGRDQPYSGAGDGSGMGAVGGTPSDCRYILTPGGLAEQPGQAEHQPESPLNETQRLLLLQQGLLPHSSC
How it was run: (§1)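 Enzyme, fluorescent-labeled peptide substrate and compound were mixed in 50 mM HEPES pH 7.5, 10 mM MgCl2, 1 mM EGTA, 0.01% Brij 35, 1 mM DTT at RT; ATP at each enzyme's Km started the reaction. After 60 min, EDTA quench and Eu-anti-phosphotyrosine-site antibody (30 min, dark); TR-FRET read, IC50 derived.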

[2] = biological target: T2, FLT3 (Homo sapiens, UniProt P36888); experiment: TR-FRET kinase activity assay, FLT3; type: biochemical; details: ATP at Km, 60 minutes
T2 sequence (P36888 27-993): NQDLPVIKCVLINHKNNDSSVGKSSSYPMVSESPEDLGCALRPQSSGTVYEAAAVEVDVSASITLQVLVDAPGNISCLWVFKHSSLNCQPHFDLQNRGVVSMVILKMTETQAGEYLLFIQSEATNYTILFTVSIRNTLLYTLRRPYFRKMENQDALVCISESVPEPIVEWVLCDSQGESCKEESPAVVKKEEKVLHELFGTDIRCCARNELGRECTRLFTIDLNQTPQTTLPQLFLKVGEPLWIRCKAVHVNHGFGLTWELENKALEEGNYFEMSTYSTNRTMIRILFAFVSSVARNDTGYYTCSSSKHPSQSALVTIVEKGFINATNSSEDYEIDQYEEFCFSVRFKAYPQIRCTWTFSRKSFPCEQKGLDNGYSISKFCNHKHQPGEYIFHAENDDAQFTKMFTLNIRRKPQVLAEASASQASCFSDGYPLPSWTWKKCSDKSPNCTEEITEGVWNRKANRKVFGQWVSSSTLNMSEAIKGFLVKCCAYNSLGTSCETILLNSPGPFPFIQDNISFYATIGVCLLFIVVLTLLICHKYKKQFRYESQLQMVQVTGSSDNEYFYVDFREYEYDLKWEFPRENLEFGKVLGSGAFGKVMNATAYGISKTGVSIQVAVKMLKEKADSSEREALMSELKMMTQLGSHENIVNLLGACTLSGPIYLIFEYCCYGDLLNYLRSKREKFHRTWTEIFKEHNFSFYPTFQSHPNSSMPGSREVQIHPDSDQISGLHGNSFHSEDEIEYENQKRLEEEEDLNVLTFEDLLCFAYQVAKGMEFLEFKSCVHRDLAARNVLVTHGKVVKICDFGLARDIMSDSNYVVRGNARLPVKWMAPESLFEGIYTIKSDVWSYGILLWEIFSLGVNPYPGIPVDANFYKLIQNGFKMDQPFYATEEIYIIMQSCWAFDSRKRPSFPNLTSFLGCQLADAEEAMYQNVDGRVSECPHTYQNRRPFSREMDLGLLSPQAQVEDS
How it was run: as §1

SMILES	pIC50 [1]	pIC50 [2]
C[C@@H](CC(F)(F)F)Nc1ncc2c(O[C@@H]3C[C@H]4CC[C@@H](C3)N4C[C@H]3CCOC3)ncc([C@H]3CC[C@H](O)CC3)c2n1 [Compound 414]	≥ 7.00	≥ 7.00
C[C@@H](COC(F)F)Nc1ncc2c(O[C@H]3C[C@@H](O)C3)ncc([C@H]3CC[C@H](O)CC3)c2n1 [Compound 407]	≥ 7.00	5.00 to 6.00
COC[C@H](C)Nc1ncc2c(OC3CCOCC3)ncc(-c3ccc(S(C)(=O)=O)cc3)c2n1 [Compound 400]	6.00 to 7.00	5.00 to 6.00
C[C@H](CC(F)(F)F)Nc1ncc2c(O[C@H]3C[C@@H](O)C3)ncc([C@H]3CC[C@H](O)CC3)c2n1 [Compound 406]	≥ 7.00	5.00 to 6.00
C[C@@H](CC(F)(F)F)Nc1ncc2c(O[C@@H]3C[C@H]4CC[C@@H](C3)N4C[C@H]3CCCO3)ncc([C@H]3CC[C@H](O)CC3)c2n1 [Compound 412]	≥ 7.00	≥ 7.00
COC[C@H](C)Nc1ncc2c(O[C@H]3C[C@H](C(=O)N4CCN(C)CC4)C3)ncc([C@H]3CC[C@H](O)CC3)c2n1 [Compound 419]	≥ 7.00	5.00 to 6.00
C[C@@H](Nc1ncc2c(OC3CCOCC3)ncc([C@H]3CC[C@H](O)CC3)c2n1)C(F)F [Compound 394]	6.00 to 7.00	5.00 to 6.00
COCCN1C(C)(C)CC(Oc2ncc([C@H]3CC[C@H](O)CC3)c3nc(N[C@@H](C)CC(F)(F)F)ncc23)CC1(C)C [Compound 355]	≥ 7.00	6.00 to 7.00
C[C@@H](CC(F)(F)F)Nc1ncc2c(O[C@@H]3C[C@H]4CC[C@@H](C3)N4[C@H]3CCOC3)ncc([C@H]3CC[C@H](O)CC3)c2n1 [Compound 413]	≥ 7.00	≥ 7.00
NC(=O)c1ccc(Nc2ncc3c(OC4CCOCC4)ncc([C@H]4CC[C@H](O)CC4)c3n2)cc1 [Compound 399]	≥ 7.00	≥ 7.00
C[C@@H](CC(F)(F)F)Nc1ncc2c(O[C@@H]3C[C@H]4CC[C@@H](C3)N4C[C@@H]3CCCO3)ncc([C@H]3CC[C@H](O)CC3)c2n1 [Compound 421]	≥ 7.00	≥ 7.00
C[C@@H](CC(F)(F)F)Nc1ncc2c(OC3CCN(c4ncccn4)CC3)ncc([C@H]3CC[C@H](O)CC3)c2n1 [Compound 373]	≥ 7.00	5.00 to 6.00
CO[C@H]1C[C@@H]1Nc1ncc2c(O[C@H]3C[C@@H](O)C3)ncc([C@H]3CC[C@H](O)CC3)c2n1 [Compound 417]	≥ 7.00	6.00 to 7.00
COC[C@H](C)Nc1ncc2c(O[C@H]3C[C@@H](C(=O)N4CCN(C)CC4)C3)ncc([C@H]3CC[C@H](O)CC3)c2n1 [Compound 393]	≥ 7.00	5.00 to 6.00
CCCCNc1ncc2c(OCCOC)ncc([C@H]3CC[C@H](O)CC3)c2n1 [Compound 125]	5.00 to 6.00	≥ 7.00
COC[C@H](C)Nc1ncc2c(C(F)(F)F)ncc([C@H]3CC[C@H](O)CC3)c2n1 [Compound 403]	5.00 to 6.00	5.00 to 6.00
C[C@@H](CC(F)(F)F)Nc1ncc2c(OC3CCN([C@H]4CCOC4)CC3)ncc([C@H]3CC[C@H](O)CC3)c2n1 [Compound 383]	≥ 7.00	5.00 to 6.00
C[C@@H](CC(F)(F)F)Nc1ncc2c(OC3C[C@H]4CC[C@@H](C3)N4C)ncc([C@H]3CC[C@H](O)CC3)c2n1 (stereo partly drawn) [Compound 370]	≥ 7.00	6.00 to 7.00

The remaining lines, values ahead:

pIC50 [1]	pIC50 [2]	SMILES
6.00 to 7.00	5.00 to 6.00	COC[C@H](C)Nc1ncc2c(OC3CCOCC3)ncc(C3CCC(F)(F)CC3)c2n1 [Compound 358]
≥ 7.00	6.00 to 7.00	C[C@@H](CC(F)(F)F)Nc1ncc2c(O[C@H]3C[C@@](C)(O)C3)ncc([C@H]3CC[C@H](O)CC3)c2n1 [Compound 429]
≥ 7.00	6.00 to 7.00	C[C@@H](CC(F)(F)F)Nc1ncc2c(O[C@H]3C[C@@H](N4CCOCC4)C3)ncc([C@H]3CC[C@H](O)CC3)c2n1 [Compound 408]
6.00 to 7.00	5.00 to 6.00	COC[C@H](C)Nc1ncc2c(Nc3ccnc(C)c3)ncc([C@H]3CC[C@H](O)CC3)c2n1 [Compound 372]
≥ 7.00	5.00 to 6.00	COC[C@H](C)Nc1ncc2c(O[C@H]3C[C@@H](O)C3)ncc([C@H]3CC[C@](C)(O)CC3)c2n1 [Compound 426]
≥ 7.00	5.00 to 6.00	COC[C@H](C)Nc1ncc2c(Nc3ccc(C)nc3)ncc([C@H]3CC[C@H](O)CC3)c2n1 [Compound 374]
≥ 7.00	< 5.00	COC[C@H](C)Nc1ncc2c(O[C@H]3C[C@@H](O)C3)ncc([C@H]3CC[C@@](C)(O)CC3)c2n1 [Compound 427]
6.00 to 7.00	5.00 to 6.00	COC[C@H](C)Nc1ncc2c(OC3CCOCC3)ncc([C@H]3CC[C@H](O)CC3)c2n1 [Compound 122, (1S,4r)-4-(2-(((S)-1-methoxypropan-2-yl)amino)-5-((tetrahydro-2H-pyran-4-yl)oxy)pyrido[4,3-d]pyrimidin-8-yl)cyclohexan-1-ol]
≥ 7.00	5.00 to 6.00	C[C@H](Nc1ncc2c(OC3CCOCC3)ncc([C@H]3CC[C@H](O)CC3)c2n1)C(F)F [Compound 365]
6.00 to 7.00	5.00 to 6.00	CC1(Nc2ncc3c(OC4CCOCC4)ncc(-c4cccc(S(=O)(=O)N5CCC5)c4)c3n2)CC1 [Compound 405]
≥ 7.00	5.00 to 6.00	COC[C@H](C)Nc1ncc2c(Nc3cccnc3)ncc([C@H]3CC[C@H](O)CC3)c2n1 [Compound 363]
≥ 7.00	6.00 to 7.00	C[C@@H](CC(F)(F)F)Nc1ncc2c(O[C@H]3C[C@@H](O)C3)ncc([C@H]3CC[C@](C)(O)CC3)c2n1 [Compound 423]
5.00 to 6.00	5.00 to 6.00	COC[C@H](C)Nc1ncc2c(O[C@H]3C[C@@H](O)C3)ncc(-c3ccnnc3)c2n1 [Compound 425]
≥ 7.00	6.00 to 7.00	CCOc1ncc([C@H]2CC[C@H](O)CC2)c2nc(N[C@@H](C)CC(F)(F)F)ncc12 [Compound 359]
6.00 to 7.00	5.00 to 6.00	COC[C@H](C)Nc1ncc2c(OC3CCOCC3)ncc(-c3ccc(C#N)cc3)c2n1 [Compound 396]
≥ 7.00	≥ 7.00	O=C(O)c1ccc(Nc2ncc3c(OC4CCOCC4)ncc([C@H]4CC[C@H](O)CC4)c3n2)cc1 [Compound 397]
≥ 7.00	5.00 to 6.00	COC[C@H](C)Nc1ncc2c(OC3C[C@H](C)N(C)[C@@H](C)C3)ncc([C@H]3CC[C@H](O)CC3)c2n1 (stereo partly drawn) [Compound 387]
6.00 to 7.00	5.00 to 6.00	COC[C@H](C)Nc1ncc2c(O[C@@H]3CCN(C)C3)ncc([C@H]3CC[C@H](O)CC3)c2n1 [Compound 366]
6.00 to 7.00	5.00 to 6.00	COCC(=O)N1C(C)(C)CC(Oc2ncc([C@H]3CC[C@H](O)CC3)c3nc(N[C@@H](C)CC(F)(F)F)ncc23)CC1(C)C [Compound 377]
≥ 7.00	≥ 7.00	C[C@@H](CC(F)(F)F)Nc1ncc2c(OC3CC(C)(C)N(C[C@@H]4CCCO4)C(C)(C)C3)ncc([C@H]3CC[C@H](O)CC3)c2n1 [Compound 418]
≥ 7.00	5.00 to 6.00	COCCN1C(C)(C)CC(Oc2ncc([C@H]3CC[C@H](O)CC3)c3nc(N[C@@H](C)CF)ncc23)CC1(C)C [Compound 381]
